# Results: ChEMBL document CHEMBL4184209, “Identification and initial optimization of inhibitors of Clostridium difficile (C. difficile) toxin B (TcdB)” (Bioorg Med Chem Lett, 2018)
# Calls of active or inactive are those of the source.
# Key:
# Toxin B [1] = molecular target: T1, Toxin B (Clostridioides difficile, UniProt P18177); assay: Inhibition of C-terminal 6-His tagged recombinant Clostridium difficile toxin B catalytic fragment (Met1 to Leu543 residues) assessed as reduction in glucosyltransferase domain UDP-glucose hydrolysis activity using UDP-glucose and ADP Alexa633 tracer incubated fore 3 hrs by fluorescence polarization assay
# T1 sequence (P18177 whole entry, the tested form may be a part): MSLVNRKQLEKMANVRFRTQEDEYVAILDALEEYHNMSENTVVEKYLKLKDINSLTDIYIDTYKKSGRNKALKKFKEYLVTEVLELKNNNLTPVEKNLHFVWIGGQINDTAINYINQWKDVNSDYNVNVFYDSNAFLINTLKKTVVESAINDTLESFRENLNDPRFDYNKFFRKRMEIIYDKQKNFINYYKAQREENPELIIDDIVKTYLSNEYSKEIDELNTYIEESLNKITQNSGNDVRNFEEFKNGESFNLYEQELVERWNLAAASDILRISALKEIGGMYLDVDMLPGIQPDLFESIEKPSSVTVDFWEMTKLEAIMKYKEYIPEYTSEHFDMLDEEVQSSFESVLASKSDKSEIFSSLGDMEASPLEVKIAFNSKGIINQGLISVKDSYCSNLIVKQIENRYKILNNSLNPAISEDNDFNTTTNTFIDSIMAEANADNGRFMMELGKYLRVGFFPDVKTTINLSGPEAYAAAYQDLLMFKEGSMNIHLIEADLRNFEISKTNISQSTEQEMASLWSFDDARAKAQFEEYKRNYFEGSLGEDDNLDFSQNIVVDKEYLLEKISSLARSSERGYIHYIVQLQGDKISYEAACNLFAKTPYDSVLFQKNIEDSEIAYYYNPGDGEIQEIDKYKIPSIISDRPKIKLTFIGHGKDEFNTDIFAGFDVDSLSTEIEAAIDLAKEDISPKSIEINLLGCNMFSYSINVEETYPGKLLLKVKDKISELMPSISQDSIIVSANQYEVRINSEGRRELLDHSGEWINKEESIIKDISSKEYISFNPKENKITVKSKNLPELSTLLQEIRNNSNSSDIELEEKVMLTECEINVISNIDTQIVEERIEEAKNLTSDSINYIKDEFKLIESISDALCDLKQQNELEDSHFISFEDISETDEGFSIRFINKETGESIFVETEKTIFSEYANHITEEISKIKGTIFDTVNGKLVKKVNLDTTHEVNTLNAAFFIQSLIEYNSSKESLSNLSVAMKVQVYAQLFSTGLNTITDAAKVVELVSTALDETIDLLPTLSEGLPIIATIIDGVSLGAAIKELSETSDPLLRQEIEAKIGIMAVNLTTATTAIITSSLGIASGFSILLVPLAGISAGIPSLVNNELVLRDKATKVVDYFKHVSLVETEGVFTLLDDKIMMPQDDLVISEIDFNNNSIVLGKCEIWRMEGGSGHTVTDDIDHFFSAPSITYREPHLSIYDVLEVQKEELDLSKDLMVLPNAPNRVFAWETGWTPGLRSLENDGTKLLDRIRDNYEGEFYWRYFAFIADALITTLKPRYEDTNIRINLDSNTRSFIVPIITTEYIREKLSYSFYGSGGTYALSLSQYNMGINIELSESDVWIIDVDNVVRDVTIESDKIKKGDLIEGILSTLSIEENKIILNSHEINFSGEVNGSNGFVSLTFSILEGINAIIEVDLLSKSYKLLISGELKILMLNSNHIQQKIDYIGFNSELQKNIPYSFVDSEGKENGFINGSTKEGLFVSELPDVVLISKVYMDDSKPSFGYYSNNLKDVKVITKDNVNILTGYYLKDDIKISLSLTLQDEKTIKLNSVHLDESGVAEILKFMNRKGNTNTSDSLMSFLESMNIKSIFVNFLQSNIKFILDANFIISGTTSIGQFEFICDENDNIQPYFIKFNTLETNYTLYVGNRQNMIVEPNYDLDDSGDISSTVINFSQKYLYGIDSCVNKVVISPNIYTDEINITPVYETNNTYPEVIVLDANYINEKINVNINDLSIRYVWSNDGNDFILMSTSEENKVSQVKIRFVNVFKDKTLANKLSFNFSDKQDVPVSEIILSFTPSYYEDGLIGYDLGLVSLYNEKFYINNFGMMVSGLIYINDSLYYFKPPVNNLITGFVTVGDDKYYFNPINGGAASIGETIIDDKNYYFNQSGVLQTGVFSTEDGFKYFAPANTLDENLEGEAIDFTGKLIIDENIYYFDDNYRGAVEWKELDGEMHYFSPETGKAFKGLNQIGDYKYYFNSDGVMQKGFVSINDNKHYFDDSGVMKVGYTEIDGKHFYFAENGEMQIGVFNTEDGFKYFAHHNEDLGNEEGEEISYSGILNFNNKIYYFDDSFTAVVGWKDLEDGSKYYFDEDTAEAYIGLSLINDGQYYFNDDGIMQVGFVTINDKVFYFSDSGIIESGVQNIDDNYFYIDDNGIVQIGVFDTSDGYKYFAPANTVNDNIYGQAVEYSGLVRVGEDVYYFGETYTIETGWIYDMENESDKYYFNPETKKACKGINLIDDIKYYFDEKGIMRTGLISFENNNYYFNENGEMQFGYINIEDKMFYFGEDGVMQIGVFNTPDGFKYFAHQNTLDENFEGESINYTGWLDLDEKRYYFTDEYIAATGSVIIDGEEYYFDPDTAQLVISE
# Clostridioides difficile = assay: Effect on growth of Clostridium difficile at 0.5 to 100 uM incubated for 24 hrs under anaerobic conditions by spectrophotometry; assay type: functional, organism-based
# [2] = system: Limosilactobacillus reuteri; assay: Effect on growth of Lactobacillus reuteri at 0.5 to 100 uM incubated for 24 hrs under anaerobic conditions by spectrophotometry; assay type: organism-based
# Bifidobacterium longum = assay: Effect on growth of Bifidobacterium longum at 0.5 to 100 uM incubated for 24 hrs under anaerobic conditions by spectrophotometry; assay type: organism-based
# Bacteroides fragilis = assay: Effect on growth of Bacteroides fragilis at 0.5 to 100 uM incubated for 48 hrs under anaerobic conditions by spectrophotometry; assay type: organism-based
# Toxin B [3] = molecular target: T1, Toxin B; assay: Inhibition of Clostridium difficile toxin B […] assessed as reduction in caspase 3/7 activation pre-incubated for 1 hr before TcdB addition by luminescence based assay1; assay type: cell-based
# [4] = Stability in human liver microsomes assessed as parent compound remaining level incubated for 15 mins; assay type: ADME, microsome; conditions: read-out: Stability
# [5] = Stability in mouse liver microsomes assessed as parent compound remaining level incubated for 15 mins; assay type: ADME, microsome; conditions: read-out: Stability
SMILES,IC50 (Toxin B [1]) [µM],Activity (Clostridioides difficile),Activity [2],Activity (Bifidobacterium longum),Activity (Bacteroides fragilis),IC50 (Toxin B [3]) [µM],remaining at 0.25 h [4] [%],remaining at 0.25 h [5] [%]
Cc1cccc(C[C@@H]2C(=O)Nc3cc(Cl)ccc3C(=O)N2Cc2ccc(C(=O)O)cc2)c1,4.4,inactive,Non-Toxic,Non-Toxic,Non-Toxic,–,–,–
O=C(O)c1ccc(CN2C(=O)c3ccc(Cl)cc3NC(=O)[C@H]2Cc2ccncc2)cc1,18,inactive,Non-Toxic,Non-Toxic,Non-Toxic,–,–,–
O=C(O)c1ccc(CN2C(=O)c3cc(Cl)ccc3NC(=O)[C@H]2Cc2cccnc2)cc1,> 80,inactive,Non-Toxic,Non-Toxic,Non-Toxic,–,–,–
O=C(O)c1ccc(CN2C(=O)c3ccc(Cl)cc3NC(=O)[C@H]2c2ccccc2)cc1,> 80,inactive,Non-Toxic,Non-Toxic,Non-Toxic,–,–,–
O=C(O)c1ccc(CN2C(=O)c3ccc(F)cc3NC(=O)[C@H]2Cc2cccnc2)cc1,8.6,inactive,Non-Toxic,Non-Toxic,Non-Toxic,–,–,–
COC(=O)c1ccc(CN2C(=O)c3ccc(Cl)cc3NC(=O)[C@H]2Cc2cccnc2)cc1,> 80,inactive,Non-Toxic,Non-Toxic,Non-Toxic,–,–,–
COc1ccc2c(c1)NC(=O)[C@@H](Cc1cccnc1)N(Cc1ccc(C(=O)O)cc1)C2=O,2.5,inactive,Non-Toxic,Non-Toxic,Non-Toxic,–,–,–
O=C(O)c1ccc(CN2C(=O)c3ccc(Cl)cc3NC(=O)[C@H]2Cc2cccnc2)cc1,0.77,inactive,Non-Toxic,Non-Toxic,Non-Toxic,–,–,–
O=C(O)c1ccc(CN2C(=O)c3ccc(Cl)cc3NC(=O)C2Cc2cnccn2)cc1 (racemic),3.1,inactive,Non-Toxic,Non-Toxic,Non-Toxic,–,–,–
CC(C)C[C@@H]1C(=O)Nc2cc(Cl)ccc2C(=O)N1Cc1ccc(C(=O)O)cc1,> 80,inactive,Non-Toxic,Non-Toxic,Non-Toxic,–,–,–
O=C(Nc1ccccn1)c1ccc(CN2C(=O)c3ccc(Cl)cc3NC(=O)[C@H]2Cc2ccccn2)cc1,0.003,inactive,Non-Toxic,Non-Toxic,Non-Toxic,0.23,99,53
O=C(Nc1cccnc1)c1ccc(CN2C(=O)c3ccc(Cl)cc3NC(=O)[C@H]2Cc2cccnc2)cc1,> 80,inactive,Non-Toxic,Non-Toxic,Non-Toxic,–,–,–
O=C(Nc1ccncc1)c1ccc(CN2C(=O)c3ccc(Cl)cc3NC(=O)[C@H]2Cc2cccnc2)cc1,> 80,inactive,Non-Toxic,Non-Toxic,Non-Toxic,–,–,–
O=C(O)c1ccc(CN2C(=O)c3ccc(Cl)cc3NC(=O)[C@@H]2Cc2ccccn2)cc1,0.5,inactive,Non-Toxic,Non-Toxic,Non-Toxic,–,–,–
N#Cc1cccc(C[C@@H]2C(=O)Nc3cc(Cl)ccc3C(=O)N2Cc2ccc(C(=O)O)cc2)c1,6.2,inactive,Non-Toxic,Non-Toxic,Non-Toxic,–,–,–
Cc1ccc(C[C@@H]2C(=O)Nc3cc(Cl)ccc3C(=O)N2Cc2ccc(C(=O)O)cc2)cc1,32,inactive,Non-Toxic,Non-Toxic,Non-Toxic,–,–,–
NC(=O)c1ccc(CN2C(=O)c3ccc(Cl)cc3NC(=O)[C@@H]2Cc2ccc(Cl)c(Cl)c2)cc1,16,inactive,Non-Toxic,Non-Toxic,Non-Toxic,–,–,–
O=C(O)c1ccc(CN2C(=O)c3ccc(Cl)cc3NC(=O)[C@H]2Cc2nccs2)cc1,2.3,inactive,Non-Toxic,Non-Toxic,Non-Toxic,–,–,–
O=C(O)c1ccc(CN2C(=O)c3ccccc3NC(=O)[C@H]2Cc2cccnc2)cc1,46,inactive,Non-Toxic,Non-Toxic,Non-Toxic,–,–,–

SMILES,IC50 (Toxin B [1]) [µM],Activity (Clostridioides difficile),Activity [2],Activity (Bifidobacterium longum),Activity (Bacteroides fragilis),IC50 (Toxin B [3]) [µM],remaining at 0.25 h [4] [%],remaining at 0.25 h [5] [%]
Cc1ccc2c(c1)NC(=O)[C@@H](Cc1ccc(Cl)c(Cl)c1)N(Cc1ccc(C(=O)O)cc1)C2=O,12,inactive,Non-Toxic,Non-Toxic,Non-Toxic,–,–,–
O=C(O)c1ccc(CN2C(=O)c3ccc(Cl)cc3NC(=O)[C@H]2Cc2ccccc2)cc1,6.3,inactive,Non-Toxic,Non-Toxic,Non-Toxic,–,–,–
CN1C(=O)[C@@H](Cc2cccnc2)N(Cc2ccc(C(=O)O)cc2)C(=O)c2ccc(Cl)cc21,> 80,inactive,Non-Toxic,Non-Toxic,Non-Toxic,–,–,–
O=C(O)c1ccc(CN2C(=O)c3ccccc3NC(=O)[C@H]2Cc2ccc(Cl)c(Cl)c2)cc1,2.1,inactive,Non-Toxic,Non-Toxic,Non-Toxic,–,–,–
O=C(O)c1ccc(CN2C(=O)c3ccc(Cl)cc3NC(=O)[C@H]2Cc2ccccc2F)cc1,30,inactive,Non-Toxic,Non-Toxic,Non-Toxic,–,–,–
O=C(Nc1ncccn1)c1ccc(CN2C(=O)c3ccc(Cl)cc3NC(=O)[C@H]2Cc2cccnc2)cc1,0.018,inactive,Non-Toxic,Non-Toxic,Non-Toxic,–,100,88
O=C(O)c1ccc(CN2C(=O)c3ccc(Cl)cc3NC(=O)[C@H]2Cc2ccc(Cl)cc2)cc1,17,inactive,Non-Toxic,Non-Toxic,Non-Toxic,–,–,–
O=C(O)c1ccc(CN2C(=O)c3ccc(Cl)cc3NC(=O)[C@@H]2Cc2ccc(Cl)c(Cl)c2)cc1,2.1,inactive,Non-Toxic,Non-Toxic,Non-Toxic,–,–,–
O=C(O)c1ccc(CN2C(=O)c3ccc(Cl)cc3NC(=O)[C@H]2Cc2cccc(Cl)c2)cc1,1.6,inactive,Non-Toxic,Non-Toxic,Non-Toxic,–,–,–
O=C(O)c1ccc(CN2C(=O)c3ccc(Cl)cc3NC(=O)[C@H]2Cc2ccccc2Cl)cc1,2.3,inactive,Non-Toxic,Non-Toxic,Non-Toxic,–,–,–
O=C(O)c1ccc(CN2C(=O)c3ccc(Cl)cc3NC(=O)[C@H]2CC2CCCCC2)cc1,84,inactive,Non-Toxic,Non-Toxic,Non-Toxic,–,–,–
O=C(O)c1ccc(CN2C(=O)c3ccc(Cl)cc3NC(=O)[C@H]2Cc2ccccn2)cc1,0.24,inactive,Non-Toxic,Non-Toxic,Non-Toxic,–,–,–
O=C(O)c1ccc(CN2C(=O)c3ccc(Cl)cc3NC(=O)[C@@H]2Cc2ccc(O)cc2)cc1,16,inactive,Non-Toxic,Non-Toxic,Non-Toxic,–,–,–
C[C@@H]1C(=O)Nc2cc(Cl)ccc2C(=O)N1Cc1ccc(C(=O)O)cc1,21,inactive,Non-Toxic,Non-Toxic,Non-Toxic,–,–,–
O=C(O)c1ccc(CN2C(=O)c3ccc(Cl)cc3NC(=O)[C@H]2CCc2ccccc2)cc1,23,inactive,Non-Toxic,Non-Toxic,Non-Toxic,–,–,–
Cc1ccccc1C[C@@H]1C(=O)Nc2cc(Cl)ccc2C(=O)N1Cc1ccc(C(=O)O)cc1,3.9,inactive,Non-Toxic,Non-Toxic,Non-Toxic,–,–,–
O=C(O)c1ccc(CN2C(=O)c3ccc(Cl)cc3NC(=O)[C@H]2Cc2ccc(O)cc2)cc1,2,inactive,Non-Toxic,Non-Toxic,Non-Toxic,–,–,–
O=C(O)c1ccc(CN2C(=O)c3cccc(Cl)c3NC(=O)[C@H]2Cc2cccnc2)cc1,69,inactive,Non-Toxic,Non-Toxic,Non-Toxic,–,–,–
O=C(Nc1ccccc1)c1ccc(CN2C(=O)c3ccc(Cl)cc3NC(=O)[C@H]2Cc2cccnc2)cc1,22,inactive,Non-Toxic,Non-Toxic,Non-Toxic,–,–,–
